In US6737383B1, “Herbicidal oxadiazolidines” (priority 1999, dated 2004):

Assays:
velvetleaf = experiment: Test B pre/postemergence velvetleaf; format: in vivo, Abutilon theophrasti
Method in brief: (§1)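 Test chemicals in a non-phytotoxic solvent mixture with surfactant were sprayed preemergence onto planted seeds and postemergence onto plants 2 to 18 cm tall (1- to 4-leaf stage). After twelve to sixteen days in a greenhouse, injury was visually rated against untreated controls from 0 (no effect) to 10 (complete control).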

purple nutsedge = experiment: Test B pre/postemergence purple nutsedge; format: in vivo, Cyperus rotundus; conditions: Postemergence
Method in brief: as §1

rice = experiment: Test B flood test rice; format: in vivo, Oryza sativa
Method in brief: (§2)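 Read-out is a visual response score from 0 (no effect) to 10 (complete control), assigned by comparison with untreated controls. Treatment was applied at the 2-leaf stage, and plants stayed in the greenhouse for twelve to sixteen days before scoring.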

soybean = experiment: Test B pre/postemergence soybean; format: in vivo, Glycine max
Method in brief: as §1

pigweed = experiment: Test B pre/postemergence pigweed; format: in vivo, Amaranthus retroflexus
Method in brief: as §1

cocklebur = experiment: Test B pre/postemergence cocklebur; format: in vivo, Xanthium strumarium
Method in brief: as §1

rape = experiment: Test B pre/postemergence rape; format: in vivo, Brassica napus
Method in brief: as §1

bamyardgrass = experiment: Test B flood test barnyardgrass; format: in vivo, Echinochloa crus-galli
Method in brief: as §2

bedstraw = experiment: Test B pre/postemergence bedstraw; format: in vivo, Galium aparine
Method in brief: as §1

morningglory = experiment: Test B pre/postemergence morningglory; format: in vivo, Ipomoea hederacea
Method in brief: as §1

blackgrass = experiment: Test B pre/postemergence blackgrass; format: in vivo, Alopecurus myosuroides
Method in brief: as §1

giant foxtail = experiment: Test B pre/postemergence giant foxtail; format: in vivo, Setaria faberii
Method in brief: as §1

surinam grass = experiment: Test B pre/postemergence surinam grass; format: in vivo, Brachiaria decumbens
Method in brief: as §1

corn = experiment: Test B pre/postemergence corn; format: in vivo, Zea mays
Method in brief: as §1

wheat = experiment: Test B pre/postemergence wheat; format: in vivo, Triticum aestivum
Method in brief: as §1

crabgrass = experiment: Test B pre/postemergence crabgrass; format: in vivo, Digitaria sanguinalis
Method in brief: as §1

duck salad = experiment: Test B flood test duck salad; format: in vivo, Heteranthera limosa
Method in brief: as §2

sugar beet = experiment: Test B pre/postemergence sugar beet; format: in vivo, Beta vulgaris
Method in brief: as §1

wild oat = experiment: Test B pre/postemergence wild oat; format: in vivo, Avena fatua
Method in brief: as §1

smallflower flatsedge = experiment: Test B flood test smallflower flatsedge; format: in vivo, Cyperus difformis
Method in brief: as §2

[1] = Preemergence, Rate 62 g/ha, scale of 0 to 10 where 0 is no effect and 10 is complete control
[2] = Preemergence, Rate 250 g/ha, scale of 0 to 10 where 0 is no effect and 10 is complete control
[3] = Preemergence, Rate 500 g/ha, scale of 0 to 10 where 0 is no effect and 10 is complete control
[4] = Rate 125 g/ha, Preemergence, scale of 0 to 10 where 0 is no effect and 10 is complete control
[5] = Rate 500 g/ha, Postemergence, scale 0 to 10, 0 no effect, 10 complete control
[6] = Rate 62 g/ha, headed Pre-emergence (flood test species), scale 0 to 10 (0 no effect, 10 complete control)
[7] = Rate 125 g/ha, Pre-emergence, flood test species, scale 0 to 10 where 0 is no effect and 10 is complete control
[8] = Rate 250 g/ha, Pre-emergence, flood-test species, scale 0 to 10, 0 is no effect, 10 is complete control
[9] = Rate 500 g/ha, Pre-emergence, flood test species, scale 0 to 10 (0 no effect, 10 complete control)
[10] = Rate 62 g/ha, Postemergence, scale of 0 to 10 where 0 is no effect and 10 is complete control
[11] = Rate 125 g/ha, Postemergence, scale 0 to 10

CC(C)N(C(=O)n1oc(=O)n(CC2CC2)c1=O)c1ccc(F)cc1 [Compound 251]
2: Plant response rating (0 to 10; 0 is no effect, 10 is complete control), Redroot pigweed (pigweed; Rate 250 g/ha, Postemergence) | Bedstraw plant response rating (bedstraw; [10]) | B. signalgrass plant response rating (surinam grass; [1]) | B. signalgrass plant response rating (surinam grass; [5]) | Wheat plant response rating (wheat; [5]) | Sugarbeets plant response rating (sugar beet; [5])
8: Blackgrass plant response rating (blackgrass; [4]) | Plant response rating (0 to 10; 0 is no effect, 10 is complete control), Blackgrass (blackgrass; Rate 250 g/ha, Postemergence) | Blackgrass plant response rating (blackgrass; [5]) | Giant foxtail plant response rating (giant foxtail; [1]) | Giant foxtail plant response rating (giant foxtail; [5]) | Plant response rating, Wheat (wheat; [3]) | Wild oats plant response rating (wild oat; [2])
0: Velvetleaf plant response rating (velvetleaf; [1]) | Velvetleaf plant response rating (velvetleaf; [5]) | Plant response rating (0 to 10; 0 is no effect, 10 is complete control), Nutsedge (purple nutsedge; Rate 250 g/ha) | Nutsedge plant response rating (purple nutsedge; Rate 500 g/ha, scale 0 to 10, 0 no effect, 10 complete control) | Rice plant response rating (rice; [6]) | Rice plant response rating (rice; [7]) | Rice plant response rating (rice; [8]) | Rice plant response rating (rice; [9]) | Soybean plant response rating (soybean; [1]) | Soybean plant response rating (soybean; [2]) | Plant response rating, Soybean (soybean; [3]) | Soybean plant response rating (soybean; [4]) | Redroot pigweed plant response rating (pigweed; [1]) | Cocklebur plant response rating (cocklebur; [1]) | Cocklebur plant response rating (cocklebur; [2]) | Plant response rating, Cocklebur (cocklebur; [3]) | Cocklebur plant response rating (cocklebur; [10]) | Cocklebur plant response rating (cocklebur; [11]) | Cocklebur plant response rating (cocklebur; [4]) | Plant response rating (0 to 10; 0 is no effect, 10 is complete control), Cocklebur (cocklebur; Rate 250 g/ha, Postemergence) | Rape plant response rating (rape; [1]) | Plant response rating (0 to 10; 0 is no effect, 10 is complete control), Rape (rape; Rate 250 g/ha, Postemergence) | Rape plant response rating (rape; [5]) | Barnyardgrass plant response rating (bamyardgrass; [6]) | Barnyardgrass plant response rating (bamyardgrass; [7]) | Barnyardgrass plant response rating (bamyardgrass; [8]) | Barnyardgrass plant response rating (bamyardgrass; [9]) | Bedstraw plant response rating (bedstraw; [1]) | Bedstraw plant response rating (bedstraw; [4]) | Morningglory plant response rating (morningglory; [1]) | Morningglory plant response rating (morningglory; [2]) | Morningglory plant response rating (morningglory; [4]) | Blackgrass plant response rating (blackgrass; [10]) | B. signalgrass plant response rating (surinam grass; [10]) | B. signalgrass plant response rating (surinam grass; Rate 125 g/ha, Postemergence, scale 0 (no effect) to 10 (complete control)) | Plant response rating (0 to 10; 0 is no effect, 10 is complete control), B. signalgrass (surinam grass; Rate 250 g/ha, Postemergence) | Corn plant response rating (corn; [1]) | Corn plant response rating (corn; [2]) | Corn plant response rating (corn; [10]) | Corn plant response rating (corn; [11]) | Corn plant response rating (corn; [4]) | Plant response rating (0 to 10; 0 is no effect, 10 is complete control), Corn (corn; Rate 250 g/ha, Postemergence) | Corn plant response rating (corn; [5]) | Wheat plant response rating (wheat; [1]) | Wheat plant response rating (wheat; [2]) | Wheat plant response rating (wheat; [4]) | Ducksalad plant response rating (duck salad; [6]) | Ducksalad plant response rating (duck salad; [7]) | Ducksalad plant response rating (duck salad; [8]) | Ducksalad plant response rating (duck salad; [9]) | Wild oats plant response rating (wild oat; [1]) | Wild oats plant response rating (wild oat; [5]) | S. Flatsedge plant response rating (smallflower flatsedge; [6]) | S. Flatsedge plant response rating (smallflower flatsedge; [7]) | S. Flatsedge plant response rating (smallflower flatsedge; [8]) | S. Flatsedge plant response rating (smallflower flatsedge; [9])
7: Plant response rating, Velvetleaf (velvetleaf; [3]) | Plant response rating (0 to 10; 0 is no effect, 10 is complete control), Bedstraw (bedstraw; Rate 250 g/ha, Postemergence) | Plant response rating (0 to 10; 0 is no effect, 10 is complete control), Morningglory (morningglory; Rate 250 g/ha, Postemergence) | Plant response rating (0 to 10; 0 is no effect, 10 is complete control), Giant foxtail (giant foxtail; Rate 250 g/ha, Postemergence) | B. signalgrass plant response rating (surinam grass; [2]) | Crabgrass plant response rating (crabgrass; [4])
9: Rape plant response rating (rape; [2]) | Rape plant response rating (rape; [4]) | Bedstraw plant response rating (bedstraw; [5]) | Morningglory plant response rating (morningglory; [5]) | Blackgrass plant response rating (blackgrass; [2]) | Plant response rating, B. signalgrass (surinam grass; [3]) | Crabgrass plant response rating (crabgrass; [2]) | Crabgrass plant response rating (crabgrass; [5]) | Plant response rating, Wild oats (wild oat; [3])
4: Velvetleaf plant response rating (velvetleaf; [4]) | Redroot pigweed plant response rating (pigweed; [5]) | Plant response rating, Morningglory (morningglory; [3]) | Blackgrass plant response rating (blackgrass; [11])
3: Cocklebur plant response rating (cocklebur; [5]) | B. signalgrass plant response rating (surinam grass; [4]) | Crabgrass plant response rating (crabgrass; [1])
10: Redroot pigweed plant response rating (pigweed; [2]) | Plant response rating, Redroot pigweed (pigweed; [3]) | Plant response rating, Rape (rape; [3]) | Bedstraw plant response rating (bedstraw; [2]) | Plant response rating, Bedstraw (bedstraw; [3]) | Plant response rating, Blackgrass (blackgrass; [3]) | Giant foxtail plant response rating (giant foxtail; [2]) | Plant response rating, Giant foxtail (giant foxtail; [3]) | Giant foxtail plant response rating (giant foxtail; [4]) | Plant response rating, Crabgrass (crabgrass; [3]) | Sugarbeets plant response rating (sugar beet; [2]) | Plant response rating, Sugarbeets (sugar beet; [3]) | Sugarbeets plant response rating (sugar beet; [4])
5: Velvetleaf plant response rating (velvetleaf; [2]) | Redroot pigweed plant response rating (pigweed; [4]) | Plant response rating, Corn (corn; [3])
6: Soybean plant response rating (soybean; [5]) | Bedstraw plant response rating (bedstraw; [11]) | Blackgrass plant response rating (blackgrass; [1]) | Plant response rating (0 to 10; 0 is no effect, 10 is complete control), Crabgrass (crabgrass; Rate 250 g/ha, Postemergence) | Sugarbeets plant response rating (sugar beet; [1]) | Wild oats plant response rating (wild oat; [4])
